Where two headings read alike, the source gives them in different places.
System: ZIKV (FSS13025, PRVABC59, MR766) in SNB-19 cells
Test: Anti-ZIKV activity in SNB-19 cells (NS1 Western blot, NS1 ELISA, immunofluorescence)
Type: cell-based, Zika virus
Details: for time-of-addition effect on ZIKV infection / IC50: SNB-19 cells; for time-of-addition effect on ZIKV infection: PRVABC59, added 1 hour before or 4 hours after inoculation; for IC50: all three strains of ZIKV, read-out: IC50 of inhibition of ZIKV (NS1 read-out); for anti-ZIKV activity in SNB-19 cells: compound added 1 hour prior to infection
Procedure: FIGS. 2A-1, 2A-2, 2B-1, 2B-2, 2C-1, 2C-2, 2D-1, 2D-2, 2D-3, 2E-1, 2E-2, and 2F. […] Screening of select compounds for antiviral activity against ZIKV infection was carried out. Glioblastoma SNB-19 cells were treated with indicated compound at 10×AC50 (determined in the primary caspase screen) for 1 hour prior to inoculation with FSS-13025 (at MOI=1). Cells were harvested 24 hours post infection and analyzed by Western blot for ZIKV-NS1 or GAPDH (FIGS. 2A-1 and 2A-2). […] Three strains of virus (FSS-13025, PRVABC59, and MR766; MOI=1) were tested. Shown are sample western blot images (FIG. 2B-1) and ImageJ quantification (FIG. 2B-2). Values represent mean±s.d. (n=3; ***P<0.001; One-way ANOVA). Titration of Emricasan on SNB-19 cells for anti-ZIKV activity was conducted similarly (FIGS. 2C-1 and 2C-2). Values represent mean±s.d. […] Sample western blot (FIG. 2D-2) and ImageJ quantification (FIG. 2D-3) are shown for infection with the PRVABC59 strain (MOI=1). Results for additional strains are shown in FIGS. 6A-F. Values represent mean±s.d. (n=2; **P<0.01; ***P<0.001; One-way ANOVA). […] The concentration of NS1 in the medium of infected SNB-19 cells collected 24 hours post-infection was quantified by a ZIKV-NS1 ELISA kit (FIGS. 2E-1 and 2E-2). Values represent mean±s.d. (n=3; ***P<0.001; One-way ANOVA). […] SNB-19 cells were treated with each indicated compound at increasing concentrations for 1 hour before infection with PRVABC59 at a MOI=0.5 (n=3 cultures). Cell culture supernatant was collected 24 hours after infection, and infectious virions were quantified for focus-forming units (FFU) using Vero cells. Data represent mean±s.d.
FIGS. 3A, 3B, 3C-1, 3C-2, 3C-3, 3C-4, 3C-5, 3D-1, 3D-2, and 3E. […] SNB-19 cells were treated with the indicated compound at 92 μM for one hour prior to infection with FSS13025 or PRVABC59 (MOI=1). Cells were harvested 24 hours post infection and analyzed by western blot for ZIKV-NS1 or GAPDH. Shown are sample images and quantification (FIGS. 3D-1 and 3D-2). Values represent mean±s.d. (n=2; ***P<0.01; One-way ANOVA). Data were normalized to those obtained for DMSO-treated cells. Values represent mean±s.d. *P<0.05; **P<0.01; ***P<0.001; by one-way ANOVA, as compared to DMSO-treated cells.
FIGS. 18A, 18B, 18C-1, 18C-2, 18D, 18E, 18F, 18G-1, and 18G-2. […] 24 hours post infection, supernatants from SNB-19 cells were titrated onto naïve vero cells plated in a monolayer in 96-well plates for infectious focus-forming unit assay as previously described and focus forming units quantified. […] Immunofluorescence (IF) staining (FIG. 18C-1) and quantification (FIG. 18C-2) of ZIKV positive SNB-19 cells following infection with one of three ZIKV strains and treatment with emetine at 0.01, 0.1, or 1 μM. […] Drug was added at 1 μM either 1-hour prior to infection with PRVABC59-ZIKV, or 4-hours post infection with PRVABC59-ZIKV. […] Drug was added at 1 μM either 1-hour prior to infection with PRVABC59-ZIKV, or 4-hours post infection with PRVABC59-ZIKV.
Cells were harvested by trypsinization, pelleting, and subsequent lysis in 1× Laemlli buffer and boiled, or directly lysed in 1× Laemlli buffer and boiled. Antibodies used were anti-ZIKV NS1 (1:2000; BF-1225-36, BioFront Technologies, Tallahassee, Fla.) or GAPDH (Santa Cruz Biotechnology, Texas).

| Structure (SMILES) | time-of-addition effect on ZIKV infection | IC50 [µM] | anti-ZIKV activity in SNB-19 cells | IC50 (Zika virus) [µM] |
| --- | --- | --- | --- | --- |
| CC(=O)Nc1ccc([C@H](C)C(=O)Nc2ncc(C(C)C)s2)cc1 [PHA-690509] | effectively inhibited ZIKV infection when added either 1 hour before or 4 hours after virus inoculation | 12 to 36 | significantly inhibited ZIKV infection in SNB-19 cells | – |
| O=C(Nc1ccc([N+](=O)[O-])cc1Cl)c1cc(Cl)ccc1O [Niclosamide] | effectively inhibited ZIKV infection when added either 1 hour before or 4 hours after virus inoculation | – | significantly inhibited ZIKV infection in SNB-19 cells | 0.5 to 2 |
| C[C@H](NC(=O)C(=O)Nc1ccccc1C(C)(C)C)C(=O)N[C@@H](CC(=O)O)C(=O)COc1c(F)c(F)cc(F)c1F [Emricasan] | – | – | no significant differences were found | – |
| CC[C@H]1CN2CCc3cc(OC)c(OC)cc3[C@@H]2C[C@@H]1C[C@H]1NCCc2cc(OC)c(OC)cc21 [Emetine] | effective against ZIKV infection when added both before or after infection | – | reduces ZIKV infection in a dosage dependent manner | – |

From patent US10940188B2, “Compounds and methods for treatment and prevention of Flavivirus infection” (priority 2016, dated 2021)
